Values quoted from earlier work, collected in patent EP0882446A1, “Antimicrobial skin cleansing compositions” (GOJO INDUSTRIES,INC., priority 1997, dated 1998).

Key:
[1] = tested on: wide spectrum of bacteria; settings: against a wide spectrum of bacteria; reported
[2] = at levels below about 3 percent by weight

## Cc1cc(O)cc(C)c1Cl [PCMX, 4-chloro-3,5-dimethyl phenol]
[1]
  antimicrobial activity relative to phenol: 60 times
[2]
  toxicity and irritation to human skin: non-toxic and non-irritating
